In patent US6274715A, “Tricyclic erythromycin derivatives” (priority 1997, dated 2001):
≈ marks a conversion by molar mass, not a printed value.

Tests used:
Assay type in all cases: cell-based
[1] = tested on: MYCOBACTERIUM SMEGMATIS ATCC 114; assay: In vitro antibacterial activity, MIC, BHI agar dilution; details: M. smegmatis ATCC 114, unit assumed
ESCHERICHIA COLI KNK 437 = details: E. coli KNK 437; BHI agar; unit assumed
[2] = tested on: STAPHYLOCOCCUS AUREUS NCTC10649M; assay: In vitro antibacterial activity, MIC, BHI agar dilution; details: S. aureus NCTC10649M, unit assumed
[3] = tested on: STAPHYLOCOCCUS AUREUS CMX 553; assay: as above; details: S. aureus CMX 553, unit assumed
[4] = tested on: PROVIDENCIA STUARTII CMX 640; details: P. stuartii CMX 640; BHI agar; unit assumed
[5] = tested on: PSEUDOMONAS AERUGINOSA K799/61; assay: In vitro antibacterial activity, MIC, BHI agar dilution; details: P. aeruginosa K799/61, unit assumed
[6] = tested on: STREPTOCOCCUS PYOGENES PIU 2548; assay: as above; details: S. pyogenes PIU 2548, unit assumed
CANDIDA ALBICANS CCH 442 = assay: as above; details: C. albicans CCH 442, unit assumed
ESCHERICHIA COLI DC-2 = assay: as above; details: E. coli DC-2, unit assumed
H. Influenza Dill AMP R = assay: In vitro antibacterial activity against H. Influenza Dill AMP R, MIC; details: separate assay, unit assumed
Procedure: Representative compounds of the present invention were assayed in vitro for antibacterial activity as follows: Twelve petri dishes containing successive aqueous dilutions of the test compound mixed with 10 mL of sterilized Brain Heart Infusion (BHI) agar (Difco 0418-01-5) were prepared. Each plate was inoculated with 1:100 (or 1:10 for slow-growing strains, such as Micrococcus and Streptococcus) dilutions of up to 32 different microorganisms, using a Steers replicator block. The inoculated plates were incubated at 35-37° C. for 20 to 24 hours. In addition, a control plate, using BHI agar containing no test compound, was prepared and incubated at the beginning and end of each test.
After incubation, each plate was visually inspected. The minimum inhibitory concentration (MIC) was defmed as the lowest concentration of drug yielding no growth, a slight haze, or sparsely isolated colonies on the inoculum spot as compared to the growth control.
In a separate assay representative compounds of the invention were assayed in vitro for antibacterial activity against the H. Influenza Dill AMP R strain, according to the protocol described above.

[7] = tested on: STAPHYLOCOCCUS AUREUS A-5278; assay: In vitro antibacterial activity, MIC, BHI agar dilution; details: S. aureus A-5278, unit assumed
[8] = tested on: STAPHYLOCOCCUS AUREUS CMX 642A; assay: as above; details: S. aureus CMX 642A, unit assumed
[9] = tested on: STAPHYLOCOCCUS EPIDERMIDIS 3519; details: S. epidermidis 3519; BHI agar; unit assumed
[10] = tested on: PSEUDOMONAS AERUGINOSA DPHD-2862; assay: In vitro antibacterial activity, MIC, BHI agar dilution; details: P. aeruginosa DPHD-2862, unit assumed
[11] = tested on: STREPTOCOCCUS PYOGENES EES61; assay: as above; details: S. pyogenes EES61, unit assumed
[12] = tested on: STAPHYLOCOCCUS AUREUS ATCC 6538P; assay: as above; details: S. aureus ATCC 6538P, 35-37° C., 20 to 24 hours, unit assumed
[13] = tested on: STREPTOCOCCUS PYOGENES 930; assay: as above; details: S. pyogenes 930, unit assumed
PSEUDOMONAS CEPACIA 296I = assay: as above; details: P. cepacia 296I, unit assumed
[14] = tested on: PSEUDOMONAS AERUGINOSA 5007; assay: as above; details: P. aeruginosa 5007, unit assumed
[15] = tested on: STAPHYLOCOCCUS AUREUS 1775; assay: as above; details: S. aureus 1775, unit assumed
[16] = tested on: PSEUDOMONAS AERUGINOSA K799/WT; assay: as above; details: P. aeruginosa K799/WT, unit assumed
ESCHERICHIA COLI SS = assay: as above; details: E. coli SS, unit assumed
M[…] ATCC 9341 = assay: as above; details: M. luteus ATCC 9341, unit assumed
Outline: (§1)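 Agar dilution in BHI: plates inoculated with 1:100 dilutions of organisms (1:10 for Micrococcus and Streptococcus), incubated 20-24 h at 35-37° C, then inspected for the lowest inhibitory concentration against a drug-free growth control.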

M[…] ATCC 4698 = assay: as above; details: M. luteus ATCC 4698, unit assumed
Outline: as §1

EN[…] ATCC 8043 = assay: as above; details: E. faecium ATCC 8043, unit assumed
Outline: as §1

STR[…] 508 = assay: as above; details: S. agalactiae CMX 508, unit assumed
Outline: as §1

[17] = tested on: PSEUDOMONAS AERUGINOSA BMH10; assay: as above; details: P. aeruginosa BMH10, unit assumed
[18] = tested on: KLEBSIELLA PNEUMONIAE ATCC 8045; assay: as above; details: K. pneumoniae ATCC 8045, unit assumed
[19] = tested on: ENTEROBACTER AEROGENES ATCC 13048; assay: as above; details: E. aerogenes ATCC 13048, unit assumed
[20] = tested on: PSEUDOMONAS AERUGINOSA DPHD-5263; assay: as above; details: P. aeruginosa DPHD-5263, unit assumed
[21] = tested on: STREPTOCOCCUS BOVIS A-5169; assay: as above; details: S. bovis A-5169, unit assumed
ESCHERICHIA COLI JUHL = details: E. coli JUHL; BHI agar; unit assumed
ESCHERICHIA COLI H560 = assay: In vitro antibacterial activity, MIC, BHI agar dilution; details: E. coli H560, unit assumed
[22] = tested on: STAPHYLOCOCCUS AUREUS A5177; assay: as above; details: S. aureus A5177, unit assumed

| Structure (SMILES) | MIC [1] | MIC (ESCHERICHIA COLI KNK 437) | MIC [2] | MIC [3] | MIC [4] | MIC [5] | MIC [6] | MIC (CANDIDA ALBICANS CCH 442) | MIC (ESCHERICHIA COLI DC-2) | MIC (H. Influenza Dill AMP R) | MIC [7] | MIC [8] | MIC [10] | MIC [11] | MIC [12] | MIC [13] | MIC (PSEUDOMONAS CEPACIA 296I) | MIC [14] | MIC [15] | MIC (ESCHERICHIA COLI SS) | also measured |
| --- | --- | --- | --- | --- | --- | --- | --- | --- | --- | --- | --- | --- | --- | --- | --- | --- | --- | --- | --- | --- | --- |
| CCC1OC(=O)C(C)C(=O)C(C)C(OC2OC(C)CC(N(C)C)C2O)C(C)(OC)CC(C)C2=NC(c3ccccc3)C(c3ccccc3)N3C(=O)OC1(C)C3C2C (stereo not shown) [Example 7] | 1.56 µg/mL (≈ 1.97 µM) | > 100 µg/mL | 3.1 µg/mL (≈ 3.92 µM) | 3.1 µg/mL (≈ 3.92 µM) | > 100 µg/mL | 6.2 µg/mL (≈ 7.85 µM) | 1.56 µg/mL (≈ 1.97 µM) | > 100 µg/mL | > 100 µg/mL | 64 µg/mL (≈ 81 µM) | 100 µg/mL (≈ 127 µM) | 3.1 µg/mL (≈ 3.92 µM) | > 100 µg/mL | 0.2 µg/mL (≈ 0.253 µM) | 3.1 µg/mL (≈ 3.92 µM) | 50 µg/mL (≈ 63.3 µM) | > 100 µg/mL | > 100 µg/mL | 100 µg/mL (≈ 127 µM) | 3.1 µg/mL (≈ 3.92 µM) | MIC [9]: 1.56 µg/mL (≈ 1.97 µM); MIC [16]: > 100 µg/mL; MIC (M[…] ATCC 9341): 0.39 µg/mL (≈ 0.494 µM); MIC (M[…] ATCC 4698): 1.56 µg/mL (≈ 1.97 µM); MIC (EN[…] ATCC 8043): 0.39 µg/mL (≈ 0.494 µM); MIC (STR[…] 508): 0.2 µg/mL (≈ 0.253 µM); MIC [17]: > 100 µg/mL; MIC [18]: > 100 µg/mL; MIC [19]: > 100 µg/mL; MIC [20]: > 100 µg/mL; MIC [21]: 0.2 µg/mL (≈ 0.253 µM); MIC (ESCHERICHIA COLI JUHL): > 100 µg/mL; MIC (ESCHERICHIA COLI H560): > 100 µg/mL |
| CC[C@H]1OC(=O)[C@H](C)C(=O)[C@H](C)[C@@H](O[C@@H]2O[C@H](C)C[C@H](N(C)C)[C@H]2O)[C@](C)(OC)C[C@@H](C)C2=NC[C@H](COCc3ccccc3)N3C(=O)O[C@@]1(C)[C@H]3[C@H]2C [Example 41] | 0.2 µg/mL (≈ 0.264 µM) | 6.2 µg/mL (≈ 8.18 µM) | 0.05 µg/mL (≈ 0.066 µM) | 0.05 µg/mL (≈ 0.066 µM) | 50 µg/mL (≈ 66 µM) | 0.2 µg/mL (≈ 0.264 µM) | 0.2 µg/mL (≈ 0.264 µM) | > 100 µg/mL | 3.1 µg/mL (≈ 4.09 µM) | 2 µg/mL (≈ 2.64 µM) | > 100 µg/mL | 0.05 µg/mL (≈ 0.066 µM) | 50 µg/mL (≈ 66 µM) | 0.01 µg/mL (≈ 0.0132 µM) | 0.05 µg/mL (≈ 0.066 µM) | > 100 µg/mL | 12.5 µg/mL (≈ 16.5 µM) | 50 µg/mL (≈ 66 µM) | > 100 µg/mL | 0.2 µg/mL (≈ 0.264 µM) | MIC [22]: 0.05 µg/mL (≈ 0.066 µM); MIC (M[…] ATCC 9341): 0.01 µg/mL (≈ 0.0132 µM); MIC (M[…] ATCC 4698): 0.1 µg/mL (≈ 0.132 µM); MIC (EN[…] ATCC 8043): 0.02 µg/mL (≈ 0.0264 µM); MIC (STR[…] 508): 0.02 µg/mL (≈ 0.0264 µM); MIC [17]: 50 µg/mL (≈ 66 µM); MIC [18]: 25 µg/mL (≈ 33 µM); MIC [20]: 12.5 µg/mL (≈ 16.5 µM); MIC [21]: ≤ 0.005 µg/mL; MIC (ESCHERICHIA COLI JUHL): 6.2 µg/mL (≈ 8.18 µM); MIC (ESCHERICHIA COLI H560): 1.56 µg/mL (≈ 2.06 µM) |
